Read-outs that look alike come from different tables or passages of the source.
Experiments:
[1] = system: NF-kB; experiment: NF-kB reporter assay in Jurkat cells stimulated with aCD3/aCD28/PMA; assay type: cell-based; details: Homo sapiens, Jurkat, read-out: NF-kB Reporter Assay IC50
Method in brief: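 Jurkat cells (25,000/well, serum-free RPMI 1640) preincubated 1 hr at 37° C with serially diluted compound, then stimulated with aCD3/aCD28/PMA (final 5 μg/mL, 5 μg/mL, 0.03 μg/mL) for 4 hr. Reporter luminescence read with One-Glo; IC50 derived.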

[2] = biological target: T1, MALT1 (Homo sapiens, UniProt Q9UDY8); experiment: MALT-1 Fluorogenic Peptide Cleavage Assay (MALT1 inhibition assay); assay type: biochemical; details: Avi-tagged FL MALT-1, Ac-LRSR-AMC peptide substrate, 30 min pre-incubation, 90 min reaction
T1 construct: Avi-tagged FL MALT-1 (Pharmaron, stored at −70° C.); Avi tag
T1 sequence (Q9UDY8 1-824): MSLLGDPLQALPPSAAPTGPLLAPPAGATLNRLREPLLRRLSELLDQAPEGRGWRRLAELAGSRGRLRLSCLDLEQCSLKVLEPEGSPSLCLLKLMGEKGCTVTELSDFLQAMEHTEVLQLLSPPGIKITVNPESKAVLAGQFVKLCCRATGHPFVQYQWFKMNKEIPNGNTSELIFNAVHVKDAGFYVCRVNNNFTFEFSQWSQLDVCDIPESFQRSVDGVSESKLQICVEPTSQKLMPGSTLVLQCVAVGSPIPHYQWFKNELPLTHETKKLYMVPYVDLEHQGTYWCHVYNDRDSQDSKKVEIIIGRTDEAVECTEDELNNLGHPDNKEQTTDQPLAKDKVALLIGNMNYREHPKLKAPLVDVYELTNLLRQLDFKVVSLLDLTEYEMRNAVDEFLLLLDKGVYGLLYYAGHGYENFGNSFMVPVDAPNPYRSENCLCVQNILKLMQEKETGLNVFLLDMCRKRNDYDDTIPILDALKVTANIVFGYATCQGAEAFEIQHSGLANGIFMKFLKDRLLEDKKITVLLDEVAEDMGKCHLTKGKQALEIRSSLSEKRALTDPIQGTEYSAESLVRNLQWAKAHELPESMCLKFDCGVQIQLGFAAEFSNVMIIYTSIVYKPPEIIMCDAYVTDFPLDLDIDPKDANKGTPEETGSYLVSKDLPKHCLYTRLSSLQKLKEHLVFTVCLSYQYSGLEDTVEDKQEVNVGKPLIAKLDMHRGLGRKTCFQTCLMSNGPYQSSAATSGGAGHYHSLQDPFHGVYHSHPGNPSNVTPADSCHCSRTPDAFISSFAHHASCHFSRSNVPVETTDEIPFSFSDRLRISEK
Method in brief: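 Avi-tagged full-length MALT1 pre-incubated 30 min with compound (2% DMSO final), then cleavage of Ac-LRSR-AMC followed over 90 min at room temperature. AMC fluorescence read at 342/441 nm; % inhibition fitted to sigmoidal curves for IC50.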

[3] = Jurkat cells, 1 hr compound incubation, aCD3/aCD28/PMA stimulation 4 hr, One-Glo readout

| IC50 [1, 3] [nM] | IC50 [2] [nM] | SMILES | IC50 [1] [nM] |
| --- | --- | --- | --- |
| < 400 | < 400 | COc1ccc2cnn(C)c2c1NS(=O)(=O)c1ccc(-n2ncc(C)c2C)nc1 [Example I-148, 6-(4,5-Dimethyl-1H-Pyrazol-1-yl)-N-(6-Methoxy-1-Methyl-1H-Indazol-7-yl)Pyridine-3-Sulfonamide] | – |
| < 400 | < 400 | COc1ccc2cnn(C)c2c1NS(=O)(=O)c1ccc(-n2cc(F)cn2)nc1 [Example I-150, 6-(4-Fluoro-1H-Pyrazol-1-yl)-N-(6-Methoxy-1-Methyl-1H-Indazol-7-yl)Pyridine-3-Sulfonamide] | – |
| < 400 | < 400 | COc1ccc2cnn(C)c2c1NS(=O)(=O)c1ccc(-n2ccc(C3CC3)n2)nc1 [Example I-153, 6-(3-Cyclopropyl-1H-Pyrazol-1-yl)-N-(6-Methoxy-1-Methyl-1H-Indazol-7-yl)Pyridine-3-Sulfonamide] | – |
| < 400 | > 2500 | Cc1[nH]ncc1-c1ccc(S(=O)(=O)Nc2cccc3cnn(C)c23)cn1 [Example I-155, N-(1-Methyl-1H-Indazol-7-yl)-6-(5-Methyl-1H-Pyrazol-4-yl)Pyridine-3-Sulfonamide] | – |
| > 2500 | > 2500 | Cn1c(=O)c2cccc(NS(=O)(=O)c3ccc(-n4cc(C(F)(F)F)cn4)nc3)c2n1C [Example I-158, N-(1,2-Dimethyl-3-Oxo-2,3-Dihydro-1H-Indazol-7-yl)-6-(4-(Trifluoromethyl)-1H-Pyrazol-1-yl)Pyridine-3-Sulfonamide] | – |
| < 400 | 1000 to 2500 | COc1ccc2cnn(C)c2c1NS(=O)(=O)c1ccc(-n2ccn(C)c2=O)nc1 [Example I-160, N-(6-Methoxy-1-Methyl-1H-Indazol-7-yl)-6-(3-Methyl-2-Oxo-2,3-Dihydro-1H-Imidazol-1-yl)Pyridine-3-Sulfonamide] | – |
| 400 to 1000 | 1000 to 2500 | COc1ccc2cnn(C)c2c1NS(=O)(=O)c1ccc(-c2noc(C)n2)nc1 [Example I-161, N-(6-Methoxy-1-Methyl-1H-Indazol-7-yl)-6-(5-Methyl-1,2,4-Oxadiazol-3-yl)Pyridine-3-Sulfonamide] | – |
| < 400 | < 400 | COc1ccc2cnn(C)c2c1N(C)S(=O)(=O)c1ccc(-c2cc(C(F)(F)F)n(C)n2)nc1 [Example I-165, N-(6-Methoxy-1-Methyl-1H-Indazol-7-yl)-N-Methyl-6-(1-Methyl-5-(Trifluoromethyl)-1H-Pyrazol-3-yl)Pyridine-3-Sulfonamide] | – |
| < 400 | > 2500 | CC(C)c1ccn(-c2ccc(S(=O)(=O)N(C)c3cccc4cnn(C)c34)cn2)n1 [Example I-171, 6-(3-isopropyl-1H-pyrazol-1-yl)-N-methyl-N-(1-methyl-1H-indazol-7-yl)pyridine-3-sulfonamide] | – |
| 400 to 1000 | < 400 | COc1ccc2cnn(C)c2c1N(C)S(=O)(=O)c1ccc(-n2cc(C(C)C)cn2)nc1 [Example I-172, 6-(4-isopropylpyrazol-1-yl)-N-(6-methoxy-1-methylindazol-7-yl)-N-methylpyridine-3-sulfonamide] | – |
| < 400 | < 400 | COc1ccc2[nH]cc(C)c2c1NS(=O)(=O)c1ccc(-n2cc(C(F)(F)F)cn2)nc1 [Example I-174, N-(5-methoxy-3-methyl-1H-indol-4-yl)-6-(4-(trifluoromethyl)-1H-pyrazol-1-yl)pyridine-3-sulfonamide] | – |

More lines, now with the values behind:

| SMILES | IC50 [1, 3] [nM] | IC50 [2] [nM] | IC50 [1] [nM] |
| --- | --- | --- | --- |
| COc1ccc2cnn(C)c2c1NS(=O)(=O)c1ccc(-c2cnc(C)s2)nc1 [Example I-149, N-(6-Methoxy-1-Methyl-1H-Indazol-7-yl)-6-(2-Methylthiazol-5-yl)Pyridine-3-Sulfonamide] | < 400 | < 400 | – |
| COc1ccc2cnn(C)c2c1NS(=O)(=O)c1ccc(-n2nccc2OC)nc1 [Example I-151, N-(6-Methoxy-1-Methyl-1H-Indazol-7-yl)-6-(5-Methoxy-1H-Pyrazol-1-yl)Pyridine-3-Sulfonamide] | < 400 | < 400 | – |
| CCC(=O)c1cnn(-c2ccc(S(=O)(=O)Nc3cccc4cnn(C)c34)cn2)c1 [Example I-152, N-(1-Methyl-1H-Indazol-7-yl)-6-(4-Propionyl-1H-Pyrazol-1-yl)Pyridine-3-Sulfonamide] | < 400 | > 2500 | – |
| Cn1ncc2cccc(NS(=O)(=O)c3ccc(-c4cc[nH]c(=O)c4)nc3)c21 [Example I-154, N-(1-Methyl-1H-Indazol-7-yl)-2′-Oxo-1′,2′-Dihydro-[2,4′-Bipyridine]-5-Sulfonamide] | > 2500 | > 2500 | – |
| COc1ncc2cnn(C)c2c1NS(=O)(=O)c1ccc(-n2ccc(C(F)(F)F)n2)nc1 [Example I-156, N-(6-Methoxy-1-Methyl-1H-Pyrazolo[4,3-C]Pyridin-7-yl)-6-(3-(Trifluoromethyl)-1H-Pyrazol-1-yl)Pyridine-3-Sulfonamide] | < 400 | < 400 | – |
| COc1ccc2cnn(C)c2c1NS(=O)(=O)c1ccc(-n2cc([N+](=O)[O-])cn2)nc1 [Example I-157, N-(6-Methoxy-1-Methyl-1H-Indazol-7-yl)-6-(4-Nitro-1H-Pyrazol-1-yl)Pyridine-3-Sulfonamide] | < 400 | < 400 | – |
| Cn1ncc2ccc(O)c(NS(=O)(=O)c3ccc(-n4cc(C(F)(F)F)cn4)nc3)c21 [Example I-159, N-(6-Hydroxy-1-Methyl-1H-Indazol-7-yl)-6-(4-(Trifluoromethyl)-1H-Pyrazol-1-yl)Pyridine-3-Sulfonamide] | < 400 | < 400 | – |
| COc1ccc2cnn(C)c2c1N(C)S(=O)(=O)c1ccc(-n2cc(C(F)(F)F)cn2)nc1 [Example I-162, N-(6-Methoxy-1-Methyl-1H-Indazol-7-yl)-N-Methyl-6-(4-(Trifluoromethyl)-1H-Pyrazol-1-yl)Pyridine-3-Sulfonamide] | < 400 | < 400 | – |
| COc1ccc2cnn(C)c2c1N(CCN(C)C)S(=O)(=O)c1ccc(-n2cc(C(F)(F)F)cn2)nc1 [Example I-163, N-(2-(Dimethylamino)Ethyl)-N-(6-Methoxy-1-Methyl-1H-Indazol-7-yl)-6-(4-(Trifluoromethyl)-1H-Pyrazol-1-yl)Pyridine-3-Sulfonamide] | – | < 400 | 1000 to 2500 |
| COc1ccc2cnn(C)c2c1N(CCCN(C)C)S(=O)(=O)c1ccc(-n2cc(C(F)(F)F)cn2)nc1 [Example I-164, N-(3-(Dimethylamino)Propyl)-N-(6-Methoxy-1-Methyl-1H-Indazol-7-yl)-6-(4-(Trifluoromethyl)-1H-Pyrazol-1-yl)Pyridine-3-Sulfonamide] | 400 to 1000 | < 400 | – |
| COc1ccc2cnn(C)c2c1NS(=O)(=O)c1ccc(-c2nc(C)n[nH]2)nc1 [Example I-166, N-(6-Methoxy-1-Methyl-1H-Indazol-7-yl)-6-(3-Methyl-1H-1,2,4-Triazol-5-yl)Pyridine-3-Sulfonamide] | > 2500 | > 2500 | – |
| COc1ccc2cnn(C)c2c1NS(=O)(=O)c1ccc(-c2nc(C(F)(F)F)n[nH]2)nc1 [Example I-167, N-(6-Methoxy-1-Methyl-1H-Indazol-7-yl)-6-(3-(Trifluoromethyl)-1H-1,2,4-Triazol-5-yl)Pyridine-3-Sulfonamide] | > 2500 | 1000 to 2500 | – |
| COc1ccc2cnn(C)c2c1NS(=O)(=O)c1ccc(-c2nnc(C)n2C)nc1 [Example I-168, 6-(4,5-dimethyl-4H-1,2,4-triazol-3-yl)-N-(6-methoxy-1-methyl-1H-indazol-7-yl)pyridine-3-sulfonamide] | > 2500 | > 2500 | – |
| COc1ccc2cnn(C)c2c1NS(=O)(=O)c1ccc(-c2nc(C)no2)nc1 [Example I-169, N-(6-Methoxy-1-Methyl-1H-Indazol-7-yl)-6-(3-Methyl-1,2,4-Oxadiazol-5-yl)Pyridine-3-Sulfonamide] | > 2500 | 1000 to 2500 | – |
| COc1ccc2cnn(C)c2c1NS(=O)(=O)c1ccc(-c2nnc(C)o2)nc1 [Example I-170, N-(6-Methoxy-1-Methyl-1H-Indazol-7-yl)-6-(5-Methyl-1,3,4-Oxadiazol-2-yl)Pyridine-3-Sulfonamide] | > 2500 | > 2500 | – |
| COc1ccc2cnn(C)c2c1NS(=O)(=O)c1ccc(-c2csc(C)n2)nc1 [Example I-173, N-(6-methoxy-1-methylindazol-7-yl)-6-(2-methyl-1,3-thiazol-4-yl)pyridine-3-sulfonamide] | – | < 400 | < 400 |
